Data set [1] deals with human osteosarcoma cells (MG-63). Nature of the data set: Assessment of cytotoxicity by SRB assay, MG-63. Conditions: MG-63 cells, 72 h. The data set is classed as cell-based. On the procedure:
(§1) The human prostate cancer cells (PC3) and human osteosarcoma cells (MG-63) were obtained from Nawah Scientific Inc. (Mokatam, Cairo, Egypt) and cultured in DMEM (Dulbecco's modified eagle's medium), Gibco, USA, supplemented with fetal bovine serum (FBS) at a concentration of 10% and 100 U/mL of penicillin and streptomycin (PS). The Cells were incubated at 37° C. in a humidified environment that contained 5% CO2.
(§2) Cells were seeded in 96-well plates as aliquots of 100 μL cell suspension and incubated in a complete media for 24 h. afterward, cells were treated with N′-(1-naphthoyloxy)-2-(benzo[d]thiazol-2-yl)acetimidamide at diverse concentrations ranging from 0.01 μM to 100 μM for 72 h. Then, cells were fixed at 4° C. for one hour with 150 μL of 10% trichloroacetic acid (TCA). After washing the cells five times with distilled water, 70 μL of sulforhodamine (SRB) solution (0.4% w/v) was added and incubated for 10 min at room temperature in a dark place. […] Then, 150 μL of Tris pH 10.5 (10 mM) was added, and the absorbance was measured at 540 nm using a BMG LABTECH®-FLUOstar Omega microplate reader (Ortenberg, Germany). Half maximal inhibitory concentrations (IC50) values were calculated for each experiment using GraphPad Prism 6 software. […]
(§3) The inhibition was calculated using the following equation: Inhibition %=100-Average Viability

A further data set deals with Bovine Serum Albumin (Bos taurus, UniProt P02769). Nature of the data set: Bovine Serum Albumin assay (BSA), inhibition of protein denaturation. In kind it is biochemical. Particulars: 0.4% w/v BSA, pH 6.4, 72° C. for 10 minutes, turbidity at 660 nm. On the procedure:
In vitro-inflammatory activities of the tested samples were determined using a modified method of the BSA assay reported by Williams et al. BSA solution (0.4%, w/v) was prepared in Tris Buffered Saline. The pH was adjusted to 6.4 with glacial acetic acid. Different dilutions of 20, 40, 60, 80, and 100 μg/mL of the stock solutions were added to test tubes containing 1 mL of 0.4%, w/v BSA buffer solution. Both negative (solvent) and positive (aspirin) controls were assayed in a similar manner. The solutions were then heated in a water bath at 72° C. for 10 minutes and cooled for 20 minutes under laboratory conditions. The turbidity of the solutions (level of protein precipitation) was measured at 660 nm in Spectrophotometer (V-770 UV-Visible/NIR Spectrophotometer).
The percentage inhibition of precipitation (protein denaturation) was determined relative to the negative control using the following equation:
[formula] % Anti-Denaturation Activity=% Inhibition of Protein Denaturation=% Anti-inflammatory Activity

Data set [2] deals with human prostate cancer cells (PC3). The experiment in a line: Assessment of cytotoxicity by SRB assay, PC3. The data set is classed as cell-based. Particulars: 72 h. On the procedure: as §1, §2, §3

Bovine Serum Albumin, sequence (P02769 25-607): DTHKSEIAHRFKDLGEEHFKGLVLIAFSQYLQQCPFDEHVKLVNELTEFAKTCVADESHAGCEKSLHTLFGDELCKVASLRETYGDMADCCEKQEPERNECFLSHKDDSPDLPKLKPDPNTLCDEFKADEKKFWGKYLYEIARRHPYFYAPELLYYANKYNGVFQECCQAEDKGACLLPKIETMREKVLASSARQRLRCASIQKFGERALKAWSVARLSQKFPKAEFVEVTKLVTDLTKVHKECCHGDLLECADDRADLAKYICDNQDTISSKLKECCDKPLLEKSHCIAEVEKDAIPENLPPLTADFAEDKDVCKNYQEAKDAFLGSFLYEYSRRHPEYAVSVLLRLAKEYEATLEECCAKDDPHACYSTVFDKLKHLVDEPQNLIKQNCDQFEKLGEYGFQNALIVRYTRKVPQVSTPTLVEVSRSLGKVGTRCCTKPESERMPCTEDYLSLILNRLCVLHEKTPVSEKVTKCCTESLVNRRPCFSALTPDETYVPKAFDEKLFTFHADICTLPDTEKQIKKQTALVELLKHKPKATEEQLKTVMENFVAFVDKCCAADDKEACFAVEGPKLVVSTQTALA

The compound `O=C(O)c1cn(C2CC2)c2cc(N3CCN(Cn4nc(/N=C/c5ccccc5)sc4=S)CC3)c(F)cc2c1=O` [7-(4-((5-(benzylideneamino)-2-thioxo-1,3,4-thiadiazol-3(2H)-yl)methyl)piperazin-1-yl)-1-cyclopropyl-6-fluoro-4-oxo-1,4-dihydroquinoline-3-carboxylic acid] displayed a melting point of 241 to 243 °C. Moreover, the antiproliferative activity result in data set [1] is “excellent antiproliferative activities”. Further, on Bovine Serum Albumin, the “in vitro anti-inflammatory activity (inhibition of protein denaturation)” value is listed as “considerable anti-inflammatory effect”. In addition, in data set [2], the antiproliferative activity result is “excellent antiproliferative activities”.

The values above are taken from patent US12006313B1, “7-(4-((5-(benzylideneamino)-2-thioxo-1,3,4-thiadiazol-3(2H)-yl)methyl)piperazin-1-yl)-1-cyclopropyl-6-fluoro-4-oxo-1,4-dihydroquinoline-3-carboxylic acid as an anti-inflammatory and anticancer compound” (KING FAISAL UNIVERSITY, priority 2023, dated 2024).
